Tested on: E. coli
Experiment: MALDI-TOF (MALDI Biotyper) growth-based resistance/susceptibility determination of the test cell substrate in CTX-containing Mueller-Hinton nutrient medium
Parameters: species or system Escherichia coli
Details: CTX 1 μg/mL; for logarithm of the similarity measure (log(score)), best match of second preparation: 4 h incubation
Description: As proof of principle for the feasibility of the disclosed procedure, a cefotaxime-susceptible E. coli was selected as the test cell substrate and applied to the determination of a characteristic of the microorganism under investigation using a MALDI Biotyper® system. For this purpose, the resistance/susceptibility of the test cell substrate to a growth-influencing substance, in this example the antibiotic cefotaxime (CTX), was investigated using a prior art method and the method disclosed herein.
The test cell substrate was incubated in nutrient medium, Mueller-Hinton nutrient medium (first preparation—FIG. 2), and the same nutrient medium containing CTX at a concentration of 1 μg/mL (second preparation—FIGS. 3 and 4). The first preparation served as a growth control. The second preparation was used to determine the resistance/susceptibility of the test cell substrate to CTX.
To create the preparations, a large volume (stock suspension) of a cell suspension, here about 12 mL, otherwise regularly 10 to 50 mL, of the test cell substrate was prepared in Mueller-Hinton nutrient medium, a liquid nutrient medium. The concentration of the test cell substrate in the stock suspension was determined densitometrically in order to use an appropriate and equal amount of the test cell substrate for the first and second preparations. A small volume was taken from this stock suspension for the first preparation and transferred to a well of a microtiter plate. Since the first preparation was designed as a growth control, no antibiotic was present in the well. Simultaneously, for a second preparation, the same volume of stock suspension was removed and transferred to another well of the microtiter plate, thereby dissolving the antibiotic CTX, which was present in dried form in the well of the second preparation, for a final concentration of 1 μg/mL. The microtiter plate was then agitated to ensure complete dissolution and homogeneous distribution of the antibiotic in the cavity of the second preparation. Further preparations in the form of a concentration-dilution series for determining of a minimum inhibitory concentration (MIC) of the antibiotic CTX is easy to generate by selectively dissolving the dried CTX in additional wells of the microtiter plate. For example, a CTX concentration of 0.5 μg/mL can be set in the Mueller-Hinton nutrient medium in a third well for another preparation, and a CTX concentration of 2 μg/mL can be set in a fourth well for yet another preparation. Thus, the dilution series can comprise the CTX concentrations 0.5, 1 and 2 μg/mL, while additional dilution steps, e.g., 0.25 or 4 μg/mL can be included. Such a dilution series can also be performed in dilution steps of different sizes of the CTX concentration. […]

CO/N=C(\C(=O)N[C@@H]1C(=O)N2C(C(=O)O)=C(COC(C)=O)CS[C@H]12)c1csc(N)n1 [CTX, cefotaxime]
logarithm of the similarity measure (log(score)), best match of second preparation (compared with entire reference library (prior art method), best match Citrobacter farmeri, >=1.7 read as growth/resistance): 1.83 | logarithm of the similarity measure (log(score)), best match of second preparation (compared with first sub-library (five best E. coli reference datasets), <1.7 read as no growth/susceptibility): 1.13 | property resistance or susceptibility to CTX (compared with entire reference library (prior art method), patent calls this result false-positive): CTX-resistant | property resistance or susceptibility to CTX (compared with first sub-library (method of the invention)): CTX-susceptible

Source: patent US12595503B2, “Reference dataset-based, spectrometric characterization of cell substrates using sub-libraries” (priority 2021, dated 2026)
